Test system: NF-κB pathway
Test: NF-κB activation assay, A549 cells with SEAP reporter
Format: cell-based, Human
Details: for NF-κB activation (optical density, 630 nm): 24 hours after dosing; for NF-κB activation (optical density, 630 nm) / NF-κB activation in words: A549 cells; for NF-κB activation, times the basal level (DMSO control) / NF-κB activation in words: 24 hours; for NF-κB activation in words: 50 and/or 500 nM
Description: As a high-throughput method of screening compounds for their ability to get into cells and activate immunological pathways related to HIV latency reversal ([46], [70]), we conducted an NF-κB reporter assay using A549 cells stably integrated with a secreted embryonic alkaline phosphatase reporter under the control of a promoter fused to five NF-κB binding sites (Fig. 7B) ([48], [70], [71]).
Human A549-Dual™ Cells supplied by InvivoGen (Cat. code a549d-nfis) and CHO-K1 cells were passaged when about 90% confluency was reached (approximately every three days). With each passage, media was aspirated from the cell layer, which was then washed with PBS. Following aspiration of the PBS, cells were detached from the culture flask with 0.25% GibcoTM Trypsin-EDTA and transferred to a 50 mL conical, which was volumed up with complete pre-warmed DMEM (4.5 g/L glucose, 10% FBS, and 1% Pen-Strep-Glutamine (100 X, 50 mg/mL)) or Ham's F-12K (Kaighn's) Medium supplemented with 10% FBS and 1% Pen-Strep (100 X, 50 mg/mL).
This conical was spun down at 1800 rpm for 3 minutes, the supernatant was removed, and cells were resuspended in their respective fresh, pre-warmed media. To count cells, 10 μL of resuspended cells were added to a sterile microcentrifuge tube and mixed with 10 μL of trypan blue after which 10 μL of the mixture was pipetted into a Countess chamber slide. A Countess™ 3 Automated Cell Counter was subsequently utilized to determine cell viability and concentration.
1 x 10^6 cells were seeded with each passage into a T75 culture flask, and cells were incubated at […]
Human A549 lung carcinoma cells (InvivoGen Cat. code a549d-nfis), stably integrated with a secreted embryonic alkaline phosphatase (SEAP) reporter, allow for the activity of the NF-κB pathway to be monitored. The SEAP reporter is under control of the interferon β (IFN-β) minimal promoter, which is fused to five NF-κB binding sites.
5 × 10^4 A549 cells were plated on Corning® 96 Well TC-Treated Microplates (CLS3595) in 180 μl of pre-warmed DMEM (4.5 g/L glucose, 10% heat-inactivated FBS (30 min at 56 ℃), and 1% Pen-Strep-Glutamine (100 X, 50 mg/mL)). Note that if cells were grown in media containing FBS that is not heat-inactivated, media will contain alkaline phosphatase. In this case, all supernatant must thoroughly be aspirated from the cell pellet obtained after centrifugation before resuspending cells in media containing heat inactivated FBS for plating. Following incubation at 37 °C in 5% CO2 for approximately 24 hours to allow for cell adherence onto the 96 well plate, 1.8 μL of each compound dissolved in DMSO was added in quadruplicate to their respective wells to achieve a final compound concentration of 1500 nM, 500 nM, or 50 nM. 1.8 μL of DMSO was added to wells as negative controls while wells treated with EBC-46 served as positive controls. 24 hours following compound addition, 180 μL of QUANTI-BlueTM Solution (InvivoGen Cat. code rep-qbs)- medium containing QB buffer and QB Reagent for detection and quantification of alkaline phosphatase- were added into wells on a new clear flat-bottom 96-well plate. 20 μL of supernatant of either SEAP-expressing cells incubated with compound or SEAP-expressing cells incubated with DMSO only were added to the wells in the new 96-well plate containing QUANTI-BlueTM Solution. Supernatant and QUANTI-BlueTM Solution were incubated at 37 °C in 5% CO2 for approximately an hour and a half. Following incubation, optical density (OD) at 630 nm was measured for each well using a BioTek Synergy H1 microplate reader under normal read speed and with a delay of 100 msec.

Row | SMILES | NF-κB activation (optical density, 630 nm) (50 nM) | NF-κB activation, times the basal level (DMSO control) (500 nM) | NF-κB activation (optical density, 630 nm) (500 nM) | NF-κB activation in words | NF-κB activation, times the basal level (DMSO control) (50 nM)
1 | C/C=C(\C)C(=O)O[C@@H]1[C@@H](C)[C@@]2(O)[C@H]([C@@H]3C(C)(C)[C@]13OC(=O)[C@@H](C)CC)[C@@H]1O[C@]1(CO)[C@@H](O)[C@]1(O)C(=O)C(C)=C[C@H]12 [EBC-46, Tigilanol tiglate] | 0.35 optical density, 630 nm | ~ 2.5 times | 0.69 optical density, 630 nm | minimal activation of NF-κB relative to the dimethyl sulfoxide (DMSO) control | –
2 | C/C=C(\C)C(=O)O[C@@H]1[C@@H](C)[C@]2(O)[C@@H]3C=C(C)C(=O)[C@@]3(O)[C@H](O)C(CO)=C[C@H]2[C@@H]2C(C)(C)[C@]12OC(=O)[C@@H](C)CC [SUW400] | 0.41 optical density, 630 nm | – | 0.67 optical density, 630 nm | comparable activity to EBC-46 at 50 and 500 nM | –
3 | C/C=C(\C)C(=O)O[C@@H]1[C@@H](C)[C@@]2(O)[C@@H](C=C(CO)C[C@]3(O)C(=O)C(C)=C[C@@H]23)[C@@H]2C(C)(C)[C@]12OC(=O)[C@@H](C)CC [SUW402] | 0.71 optical density, 630 nm | – | 0.63 optical density, 630 nm | strong activation of NF-κB at higher concentrations but with an inverse dose response | approximately three
4 | CC=C(C)C(=O)OC1C(C)C2(O)C(C3OC3(CO)CC3(O)C(=O)C(C)=CC32)C2C(C)(C)C12OC(=O)C(C)CC (stereo not drawn) [SUW403] | 0.39 optical density, 630 nm | – | 0.67 optical density, 630 nm | comparable activity to EBC-46 at 50 and 500 nM | –
5 | C/C=C(\C)C(=O)O[C@@H]1[C@@H](C)[C@@]2(O)[C@H]([C@@H]3C(C)(C)[C@]13OC(=O)C1CCC1)[C@@H]1O[C@]1(CO)[C@@H](O)[C@]1(O)C(=O)C(C)=C[C@H]12 [SUW406] | 0.38 optical density, 630 nm | – | 0.57 optical density, 630 nm | comparable activity to EBC-46 at 50 and 500 nM | –
6 | C/C=C(\C)C(=O)O[C@@H]1[C@@H](C)[C@@]2(O)[C@H]([C@@H]3C(C)(C)[C@]13OC(=O)[C@H](C)CC)[C@@H]1O[C@]1(CO)[C@@H](O)[C@]1(O)C(=O)C(C)=C[C@H]12 [SUW407] | 0.42 optical density, 630 nm | – | 0.60 optical density, 630 nm | comparable activity to EBC-46 at 50 and 500 nM | –
7 | CC[C@H](C)C(=O)O[C@@]12[C@H](OC(=O)C3(C)CC3)[C@@H](C)[C@@]3(O)[C@H]([C@@H]1C2(C)C)[C@@H]1O[C@]1(CO)[C@@H](O)[C@]1(O)C(=O)C(C)=C[C@H]13 [SUW413] | 0.40 optical density, 630 nm | – | 0.70 optical density, 630 nm | comparable activity to EBC-46 at 50 and 500 nM | –
8 | C/C=C(\C)C(=O)O[C@@H]1[C@@H](C)[C@@]2(O)[C@H]([C@@H]3C(C)(C)[C@]13OC(=O)N1CCCC1)[C@@H]1O[C@]1(CO)[C@@H](O)[C@]1(O)C(=O)C(C)=C[C@H]12 [SUW421] | 0.30 optical density, 630 nm | – | 0.31 optical density, 630 nm | minimal activity in this assay at 50 and 500 nM | –
9 | C/C=C(\C)C(=O)O[C@@H]1[C@@H](C)[C@]2(O)[C@@H]3C=C(C)[C@H](OC(=O)c4ccccc4)[C@@]3(O)[C@H](O)C(CO)=C[C@H]2[C@@H]2C(C)(C)[C@]12OC(=O)[C@@H](C)CC [SUW422] | 0.26 optical density, 630 nm | – | 0.36 optical density, 630 nm | minimal NF-κB activation at both 50 and 500 nM | –
10 | CC[C@H](C)C(=O)O[C@@]12[C@H](OC(=O)N3CCCC3)[C@@H](C)[C@@]3(O)[C@H]([C@@H]1C2(C)C)[C@@H]1O[C@]1(CO)[C@@H](O)[C@]1(O)C(=O)C(C)=C[C@H]13 [SUW424] | 0.34 optical density, 630 nm | – | 0.34 optical density, 630 nm | minimal activity in this assay at 50 and 500 nM | –
11 | C/C=C(\C)C(=O)O[C@@H]1[C@@H](C)[C@]2(O)[C@@H]3C=C(C)[C@H](OC(=O)C=C(C)C)[C@@]3(O)[C@H](O)C(CO)=C[C@H]2[C@@H]2C(C)(C)[C@]12OC(=O)[C@@H](C)CC [SUW425] | 0.34 optical density, 630 nm | – | 0.47 optical density, 630 nm | minimal NF-κB activation at both 50 and 500 nM | –
12 | CC=C(C)C(=O)OC1C(C)C2(O)C(C3OC3(COC)C(O)C3(O)C(=O)C(C)=CC32)C2C(C)(C)C12OC(=O)C(C)CC (stereo not drawn) [SUW426] | 0.23 optical density, 630 nm | – | 0.23 optical density, 630 nm | did not exhibit NF-κB activation at either concentration tested | –
13 | C/C=C(\C)C(=O)O[C@@H]1[C@@H](C)[C@@]2(O)[C@H]([C@@H]3C(C)(C)[C@]13OC(=O)c1ccccc1)[C@@H]1O[C@]1(CO)[C@@H](O)[C@]1(O)C(=O)C(C)=C[C@H]12 [SUW428] | 0.31 optical density, 630 nm | – | 0.43 optical density, 630 nm | less effective at inducing NF-κB activation than EBC-46 at 500 nM | –
14 | CC[C@H](C)C(=O)O[C@@]12[C@H](OC(C)(C)C)[C@@H](C)[C@@]3(O)[C@H]([C@@H]1C2(C)C)[C@@H]1O[C@]1(CO)[C@@H](O)[C@]1(O)C(=O)C(C)=C[C@H]13 [SUW430] | 0.30 optical density, 630 nm | – | 0.67 optical density, 630 nm | performed comparably to EBC-46 at both concentrations | –
15 | C/C=C(\C)C(=O)O[C@@H]1[C@@H](C)[C@@]2(O)[C@H]([C@@H]3C(C)(C)[C@]13OC(=O)Cc1cccc3ccccc13)[C@@H]1O[C@]1(CO)[C@@H](O)[C@]1(O)C(=O)C(C)=C[C@H]12 [SUW431] | 0.74 optical density, 630 nm | – | 0.65 optical density, 630 nm | strong activation of NF-κB at higher concentrations but with an inverse dose response | approximately three

Reference: publication PMC11778240, “Synthesis and preclinical evaluation of tigilanol tiglate analogs as latency-reversing agents for the eradication of HIV” (Science Advances, 2025)
